From patent publication US12441732B2, “Potassium salt crystal form B of phosphodiesterase type 5 inhibitor, and preparation method and use therefor” (Guangzhou Huazhen Pharmaceutical Co., Ltd, priority 2019, dated 2025)
Converted amounts (≈) assume the structure as drawn. Like-named read-outs stand apart in the source and are kept apart here.

Legend:
[1] = background statement; cited from earlier work
[2] = biological target: PDE5 (Homo sapiens, UniProt O76074); settings: background statement; cited from earlier work
[3] = tested on: PAH rats; assay: Monocrotaline-induced pulmonary arterial hypertension (PAH) rats: RVSP, RVMI, pulmonary arterioles; type: in vivo, SD rats; settings: for RVMI, RV/(LV+S) / RVSP: 3 weeks after MCT
Excerpt: SD rats were randomly divided into 8 groups, 15 rats/group: a normal control group (Vehicle); a PAH model group (MCT); a PAH+potassium salt crystal form B of WYQ mini-dose group (hereafter referring to as a mini-dose group); a PAH+potassium salt crystal form B of WYQ low-dose group (hereafter referring to as a low-dose group); a PAH+potassium salt crystal form B of WYQ medium-dose group (hereafter referring to as a medium-dose group); a PAH+potassium salt crystal form B of WYQ high-dose group (hereafter referring to as a high-dose group); a PAH+Sildenafil control group (hereafter referring to as a Sildenafil group); a PAH+Tadalafil control group (hereafter referring to as a Tadalafil group).
MCT was fully dissolved with 1M dilute HCl, diluted with double-distilled water, and adjusted to pH=7.2 with 3M NaOH, thereby preparing a MCT solution with a final concentration of 20 mg/ml.
The normal control group was injected subperitoneally with normal saline (50 mg/kg), and the rest of the groups were injected subperitoneally with MCT (50 mg/kg) at one time.
Mini-dose group: the potassium salt crystal form B of WYQ was prepared into a 0.4 mg/ml medicinal solution (ready to use) with normal saline, and administered by gavage at the dose of 2 mg·kg^−1d^−1;
Low-dose group: the potassium salt crystal form B of WYQ was prepared into a 1 mg/ml medicinal solution (ready to use) with normal saline, and administered by gavage at the dose of 5 mg·kg^−1d^−1;
Medium-dose group: the potassium salt crystal form B of WYQ was prepared into a 2 mg/ml medicinal solution (ready to use) with normal saline, and administered by gavage at the dose of 10 mg·kg^−1d^−1;
High-dose group: the potassium salt crystal form B of WYQ was prepared into a 4 mg/ml medicinal solution (ready to use) with normal saline, and administered by gavage at the dose of 20 mg·kg^−1d^−1;
Sildenafil group: Sildenafil was prepared into a 5 mg/ml medicinal solution (ready to use) with 0.5% sodium carboxymethyl cellulose, and administered by gavage at the dose of 25 mg·kg^−1d^−1;
Tadalafil group: Tadalafil was prepared into a 2 mg/ml medicinal solution (ready to use) with 0.5% sodium carboxymethyl cellulose, and administered by gavage at the dose of 10 mg·kg^−1d^−1.
The day of injection was the starting date of the experiment, and the administration was started after 7 days of modeling, once a day for 14 consecutive days.
After 3 weeks from the starting date of the experiment, RVSP data were collected on RM-6240E polygraph for each group of rats.
After 3 weeks from the starting date of the experiment, the animals were anesthetized, hemodynamically tested (RM-6240E polygraph), and sacrificed after manometry. The cardiopulmonary tissues were immediately dissected, and the right and left atria and great vessels were cut off along the atrioventricular junction with ophthalmic scissors to separate the right ventricle (RV) and left ventricular wall plus septum (LV+S), which was absorbed water with filter paper and weighed respectively, and RV/(LV+S), i.e., RVMI was calculated.
After 3 weeks from the starting date of the experiment, rats were heparinized with heparin (50 IU/100 g, intraperitoneal injection) for 5 min. The animals were anesthetized by injection of 20% urethane solution (0.5 ml/100 g), and the blood pressure indexes were detected and recorded.
The heart was dissected, the right ventricular wall was separated, and the left ventricle and the septum were separated, which were absorbed water with filter paper and weighed respectively to calculate the right ventricular hypertrophy index.
The lungs were dissected, wherein the right lung was ligated, and the left lung lobe was perfused with a fixative (4% paraformaldehyde) and then fixed in the fixative, dehydrated by ethanol gradient, allowed to become transparent by using xylene, immersed in wax, embedded in paraffin, sectioned (4 μm), stained with hematoxylin-eosin (HE), sealed with neutral gum and then observed under a microscope. […]

[4] = tested on: PAH rats; assay: Penile erectile function observation in PAH rats; type: in vivo, SD rats
Method: After gavage treatment, penile erection in the animals was observed, wherein the time of penile erection phenomenon after gavage was recorded in each group.

[5] = Dynamic solubility test in water, SGF, FaSSIF, FeSSIF at 37° C.; type: physicochemical; settings: for solubility at 1 h / solubility at 4 h / solubility at 24 h: thermodynamic from solid, read-out: solubility (S)
[6] = Solid-state stability test (one week, open); type: physicochemical; settings: for HPLC purity: Purity after placement / Purity after placement/Starting purity / Crystal form change: open; for Crystal form change: XRPD
Method: The solid-state stability of the potassium salt crystal form B prepared in Embodiment 1 was tested, in which 5.22 mg of potassium salt crystal form B samples were weighed and left open at 25° C./60% RH, and 5.19 mg of potassium salt crystal form B samples were weighed and left open at 40° C./75% RH. After one week, all samples were subjected to XRPD characterization (see XRPD parameter settings in Table 1) and HPLC purity test (Agilent 1100) to detect changes in crystal form and purity, wherein HPLC purity test parameters were shown in Table 6. Meanwhile, 4.59 mg of a compound WYQ sample was weighed and left open at 25° C./60% RH, and 5.11 mg of the compound WYQ sample was weighed and left open at 40° C./75% RH. The solid-state stability of these samples were performed under the same conditions for comparative reference.

[7] = tested on: IPF rats; assay: Bleomycin-induced idiopathic pulmonary fibrosis (IPF) rats; type: in vivo, SD rats; settings: 23 days
Method: The animals were purchased, and modeling was started after 3-7 days of acclimatization. The animals were weighed and anesthetized by inhalation with isoflurane. After the animals were confirmed to be anesthetized, the neck was disinfected, and the skin of the neck was cut. The main trachea was exposed by bluntly dissecting the muscle, a small incision was made between the tracheal rings, into which a PE-20 tube was inserted until the left main bronchus, and bleomycin was injected directly (dose: 3 mg/kg, volume: 1.0 ml/kg). The trachea and skin were sutured. After the surgery, the animals were kept warm at 37° C. under an electric blanket until the animals were fully awake and confirmed to be able to feed and drink freely before returning the animals to their normal feeding cages.
50 mg/kg Nintedanib group (BIBF-50 mg/kg): BIBF was prepared into a solution of 10 mg/ml with 0.5% sodium carboxymethyl cellulose and administered by gavage at a dose of 50 mg/kg^−1·d^−1;
Each group of rats was administered by gavage on the day of modeling, once a day for 23 days in total.
After 23 days of continuous administration, all animals in each group were euthanized by intraperitoneal injection of pentobarbital sodium anesthetic (100 mg/kg) in accordance with the KCl standard operating procedure for animal euthanasia. Whole-body perfusion was performed by low-temperature PBS, and then fixation was performed by whole-body formalin perfusion. The left lung was taken and perfused with an equal amount of formalin fluid for weighing and subsequent lung pathology-related tests.
Left lung gross pathological examination: after perfusion with an equal amount of formalin, the wet weight of the left lung after the perfusion was weighed and recorded with a microbalance; the volume of the left lung after perfusion was measured and recorded using a toe volume measuring instrument.
The whole lung of the left lung was dehydrated according to the KCl pathology standard SOPs, and paraffin blocks were prepared. The whole lung of the left lung was paraffin-sectioned at a thickness of 3-4 μm. HE staining and Masson Trichrome staining were performed according to the KCl pathology standard staining SOPs, and the slice panoramic scanning was carried out by a Hamamatsu NanoZoomer Digital Pathology (S210) slice scanner. The lung lesion area was calculated by Masson Trichrome staining of the sections, and the left lung fibrosis area (%) was the percentage of fibrosis area in the left lung area; 10 randomly selected fields of view of 1 mm^2 in the lesion area were semi-quantitatively scored by the pathologist under double-blind conditions according to the Ashcroft scoring system (as shown in Table 8 and FIG. 40).

[8] = Sildenafil group 25 mg·kg^−1d^−1
[9] = Sildenafil group 25 mg·kg^−1d^−1 gavage once a day for 14 days
[10] = Tadalafil group 10 mg·kg^−1d^−1 gavage once a day for 14 days

For `CCCc1nn(C)c2c(=O)[nH]c(-c3cc(S(=O)(=O)N4CCN(C)CC4)ccc3OCC)nc12` [Sildenafil, reference compound], the bioavailability [1] is given as “about 41%”, the “selective effect on PDE5 relative to PDE6” value [2] is given as 10 times and the “WT % of pulmonary arterioles vs PAH model group” value [3, 8] is given as “not statistically significant”. For the same compound, the “tunica media thickness of pulmonary arterioles vs PAH model group” value [3, 8] was “decrease”, the “RVMI, RV/(LV+S)” value [3, 9] was 48.4±1.0% and the RVSP [3, 9] was 60.4±5.0 mmHg. For the same compound, the “rats showing penile erection” value ([4]; Sildenafil group 25 mg·kg^−1d^−1, over 30 minutes after gavage) was 80%.

With `CCCCOC(=O)NS(=O)(=O)c1cccc(-c2nc3c(CCC)nn(C)c3c(=O)[nH]2)c1` [compound WYQ, 5-(2-H-5 (N-butoxycarbonylaminosulfonyl)phenyl)-1-methyl-3-propyl-1,6-dihydro-7H-pyrazolo [4,3-d]pyrimidin-7-one] the “crystal form change after XRPD assay (FC)” value (shortened to “crystal form change … (FC)”) ([5]; FaSSIF, 1 h) was “yes”, the pH ([5]; FaSSIF, 1 h) was 6.5 and the “crystal form change … (FC)” value ([5]; FaSSIF, 4 h) was “yes”. The pH ([5]; FaSSIF, 4 h) was 6.5, the “crystal form change … (FC)” value ([5]; FaSSIF, 24 h) was “yes” and the pH ([5]; FaSSIF, 24 h) was 6.6. For the same compound, the “crystal form change … (FC)” value ([5]; FeSSIF, 1 h) was “yes”, the pH ([5]; FeSSIF, 1 h) was 5.0 and the “crystal form change … (FC)” value ([5]; FeSSIF, 4 h) was “yes”. For the same compound, the pH ([5]; FeSSIF, 4 h) was 5.0, the “crystal form change … (FC)” value ([5]; FeSSIF, 24 h) was “yes” and the pH ([5]; FeSSIF, 24 h) was 5.0. For the same compound, the “crystal form change … (FC)” value ([5]; SGF, 1 h) was “yes”, the pH ([5]; SGF, 1 h) was 2.4 and the “crystal form change … (FC)” value ([5]; SGF, 4 h) was “yes”. For the same compound, the pH ([5]; SGF, 4 h) was 2.5, the “crystal form change … (FC)” value ([5]; SGF, 24 h) was “yes” and the pH ([5]; SGF, 24 h) was 2.4. It also gave a solubility at 1 h ([5]; fasted-state simulated intestinal fluid (FaSSIF), FaSSIF, 1 h) of 1900 µg/mL (≈ 4250 µM), a solubility at 4 h ([5]; fasted-state simulated intestinal fluid (FaSSIF), FaSSIF, 4 h) of 1900 µg/mL (≈ 4250 µM) and a solubility at 24 h ([5]; fasted-state simulated intestinal fluid (FaSSIF), FaSSIF, 24 h) of 2000 µg/mL (≈ 4470 µM). The solubility at 1 h ([5]; fed-state simulated intestinal fluid (FeSSIF), FeSSIF, 1 h) was 160 µg/mL (≈ 358 µM), the solubility at 4 h ([5]; fed-state simulated intestinal fluid (FeSSIF), FeSSIF, 4 h) was 160 µg/mL (≈ 358 µM) and the solubility at 24 h ([5]; fed-state simulated intestinal fluid (FeSSIF), FeSSIF, 24 h) was 160 µg/mL (≈ 358 µM). The solubility at 1 h ([5]; simulated gastric fluid (SGF), simulated gastric fluid, SGF, 1 h) was 5.6 µg/mL (≈ 12.5 µM), the solubility at 4 h ([5]; simulated gastric fluid (SGF), simulated gastric fluid, SGF, 4 h) was 6 µg/mL (≈ 13.4 µM) and the solubility at 24 h ([5]; simulated gastric fluid (SGF), simulated gastric fluid, SGF, 24 h) was 6.9 µg/mL (≈ 15.4 µM). For the same compound, the solubility at 1 h ([5]; water, 1 h) was 2200 µg/mL (≈ 4920 µM), the solubility at 4 h ([5]; water, 4 h) was 1800 µg/mL (≈ 4020 µM) and the solubility at 24 h ([5]; water, 24 h) was 2200 µg/mL (≈ 4920 µM). For the same compound, the “crystal form change … (FC)” value ([5]; water, 1 h) was “yes”, the pH ([5]; water, 1 h) was 7.7 and the “crystal form change … (FC)” value ([5]; water, 4 h) was “yes”. For the same compound, the pH ([5]; water, 4 h) was 7.9, the “crystal form change … (FC)” value ([5]; water, 24 h) was “yes” and the pH ([5]; water, 24 h) was 7.6. For the same compound, the “decrease in purity after one week of placement” value ([6]; 25° C./60% RH) was “No significant decrease”, the “HPLC purity: Purity after placement” value ([6]; 25° C./60% RH, one week) was 97.17 area % and the “Purity after placement/Starting purity” value ([6]; 25° C./60% RH, one week) was 99.8%. The Crystal form change ([6]; 25° C./60% RH, one week) was “unchanged”, the “decrease in HPLC purity (area %)” value ([6]; 40° C./75% RH, one week) was “about 1%” and the “HPLC purity: Purity after placement” value ([6]; 40° C./75% RH, one week) was 96.30 area %. The “Purity after placement/Starting purity” value ([6]; 40° C./75% RH, one week) was 98.9% and the Crystal form change ([6]; 40° C./75% RH, one week) was “changed”.

In the case of `CN1CC(=O)N2[C@H](c3ccc4c(c3)OCO4)c3[nH]c4ccccc4c3C[C@@H]2C1=O` [Tadalafil, reference compound], the biological half-life [1] is listed as “approximately 17.5 hours”, the “RVMI, RV/(LV+S)” value [3, 10] is listed as 41.8±1.9% and the RVSP [3, 10] is listed as 52.5±2.4 mmHg. The “rats showing penile erection” value ([4]; Tadalafil group 10 mg·kg^−1d^−1, over 30 minutes after gavage) was 80%.

For `COC(=O)c1ccc2c(c1)NC(=O)/C2=C(\Nc1ccc(N(C)C(=O)CN2CCN(C)CC2)cc1)c1ccccc1` [BIBF, Nintedanib, reference compound], the Left lung volume ([7]; 50 mg/kg gavage once a day) was 1736.9 ± 136.10 mm^3, the Left lung weight ([7]; 50 mg/kg gavage once a day) was 1.58 ± 0.12 g and the “alveolar tissue structure in left lung pulmonary fibrosis lesions (HE staining)” value ([7]; 50 mg/kg) was “some of the alveolar structures in the fibrotic lesions were still damaged”. For the same compound, the “alveolar tissue structure in left lung pulmonary fibrosis lesions (Masson Trichrom staining)” value ([7]; 50 mg/kg) was “some of the alveolar structures in the fibrotic lesions disappeared”, the “left lung pulmonary fibrosis lesions and lesion range vs the model group” value ([7]; different doses, H&E and Masson Trichrom staining) was “no significant difference” and the Fibrosis area ([7]; left lung, 50 mg/kg) was 56.91 ± 4.19%. The “Percentage of score (%) (≤3)” value ([7]; left lung, 50 mg/kg) was 78.75 ± 4.79 %.
